Assay results published in ChEMBL document CHEMBL5537118, “Synthesis of cinnamoyl tethered indoline derivatives with anti-inflammatory and antioxidant activities” (Eur J Med Chem, 2024).
pIC50: −log10 of the molar value. Calls of active or inactive are those of the source. The rule behind the calls is not given here.

What was measured:
RAW264.7 [1] = experiment: Antioxidant activity in H2O2-stimulated mouse RAW264.7 cells assessed as protection against cell damage at 2 to 5 uM pretreated for 30 mins followed by H2O2 stimulation and measured after 4 hrs by MTT assay; assay type: functional, cell-based; conditions: dose 2-5 µM, time 4.5 hrs
[2] = Cytotoxicity against mouse RAW264.7 cells assessed as cell viability at 2 to 10 uM measured after 24 hrs; assay type: toxicity, cell-based; conditions: dose 2-10 µM, read-out: Activity
RAW264.7 [3] = experiment: Antiinflammatory activity in LPS-induced mouse RAW264.7 cells assessed as inhibition of NO production at 2 to 10 uM pretreated for 1 hr followed by LPS addition and measured after 24 hrs by griess reagent based assay; assay type: functional, cell-based; conditions: dose 2-10 µM, time 25.0 hrs
RAW264.7 [4] = experiment: Antiinflammatory activity in LPS-induced mouse RAW264.7 cells assessed as inhibition of NO production pretreated for 1 hr followed by LPS addition and measured after 24 hrs by griess reagent based assay; assay type: functional, cell-based
Mus musculus [5] = experiment: Antiinflammatory activity in carrageenan-induced Kunming mouse model of paw edema assessed as paw volume at 30 mg/kg, ip pretreated for 1 hr followed by carrageenan administration and measured immediately by digital plethysmometer (reference value: 0.116 +/- 0.042 mL); assay type: functional
Mus musculus [6] = experiment: Antiinflammatory activity in carrageenan-induced Kunming mouse model of paw edema assessed as paw volume at 30 mg/kg, ip pretreated for 1 hr followed by carrageenan administration and measured after 1 hr by digital plethysmometer (reference value: 0.395 +/- 0.017 mL); assay type: functional; conditions: time 2 hrs
Mus musculus [7] = experiment: Antiinflammatory activity in carrageenan-induced Kunming mouse model of paw edema assessed as paw volume at 30 mg/kg, ip pretreated for 1 hr followed by carrageenan administration and measured after 3 hrs by digital plethysmometer (reference value: 0.377 +/- 0.018 mL); assay type: functional; conditions: time 4 hrs
Mus musculus [8] = experiment: Antiinflammatory activity in carrageenan-induced Kunming mouse model of paw edema assessed as paw volume at 30 mg/kg, ip pretreated for 1 hr followed by carrageenan administration and measured after 5 hrs by digital plethysmometer (reference value: 0.362 +/- 0.016 mL); assay type: functional; conditions: time 6 hrs
Mus musculus [9] = experiment: Antiinflammatory activity in carrageenan-induced Kunming mouse model of paw edema assessed as edema inhibition at 30 mg/kg, ip pretreated for 1 hr followed by carrageenan administration and measured after 1 hr relative to control; assay type: functional; conditions: time 2 hrs
Mus musculus [10] = experiment: Antiinflammatory activity in carrageenan-induced Kunming mouse model of paw edema assessed as edema inhibition at 30 mg/kg, ip pretreated for 1 hr followed by carrageenan administration and measured after 3 hrs relative to control; assay type: functional; conditions: time 4 hrs
Mus musculus [11] = experiment: Antiinflammatory activity in carrageenan-induced Kunming mouse model of paw edema assessed as edema inhibition at 30 mg/kg, ip pretreated for 1 hr followed by carrageenan administration and measured after 5 hrs relative to control; assay type: functional; conditions: time 6 hrs
Mus musculus [12] = experiment: Antiinflammatory activity in carrageenan-induced Kunming mouse model of paw edema assessed as paw volume at 30 mg/kg, IG pretreated for 1 hr followed by carrageenan administration and measured immediately by digital plethysmometer (reference value: 0.144 +/- 0.026 mL); assay type: functional
Mus musculus [13] = experiment: Antiinflammatory activity in carrageenan-induced Kunming mouse model of paw edema assessed as paw volume at 30 mg/kg, IG pretreated for 1 hr followed by carrageenan administration and measured after 1 hr by digital plethysmometer (reference value: 0.407 +/- 0.023 mL); assay type: functional; conditions: time 2 hrs
Mus musculus [14] = experiment: Antiinflammatory activity in carrageenan-induced Kunming mouse model of paw edema assessed as paw volume at 30 mg/kg, IG pretreated for 1 hr followed by carrageenan administration and measured after 3 hrs by digital plethysmometer (reference value: 0.365 +/- 0.044 mL); assay type: functional; conditions: time 4 hrs
Mus musculus [15] = experiment: Antiinflammatory activity in carrageenan-induced Kunming mouse model of paw edema assessed as paw volume at 30 mg/kg, IG pretreated for 1 hr followed by carrageenan administration and measured after 5 hrs by digital plethysmometer (reference value: 0.353 +/- 0.024 mL); assay type: functional; conditions: time 6 hrs
Mus musculus [16] = experiment: Antiinflammatory activity in carrageenan-induced Kunming mouse model of paw edema assessed as edema inhibition at 30 mg/kg, IG pretreated for 1 hr followed by carrageenan administration and measured after 1 hr relative to control; assay type: functional; conditions: po, time 2 hrs
Mus musculus [17] = experiment: Antiinflammatory activity in carrageenan-induced Kunming mouse model of paw edema assessed as edema inhibition at 30 mg/kg, IG pretreated for 1 hr followed by carrageenan administration and measured after 3 hrs relative to control; assay type: functional; conditions: po, time 4 hrs
Mus musculus [18] = experiment: Antiinflammatory activity in carrageenan-induced Kunming mouse model of paw edema assessed as edema inhibition at 30 mg/kg, IG pretreated for 1 hr followed by carrageenan administration and measured after 5 hrs relative to control; assay type: functional; conditions: po, time 6 hrs

Structure (SMILES)	Activity (RAW264.7 [1])	viability at 24 h, 10 µM [2]	Activity (RAW264.7 [3])	further results
COc1ccc2c(c1)CCN2CCCNC(=O)/C=C/c1ccc(O)cc1	Active	> 85%	Active	–
COc1ccc2c(c1)CCN2CCCNC(=O)/C=C/c1ccc(O)c(O)c1	Active	> 85%	Active	pIC50 (RAW264.7 [4]): 5.68
COc1cc(/C=C/C(=O)NCCCN2CCc3cc(Cl)ccc32)cc(OC)c1O	–	> 85%	–	–
COc1ccc2c(c1)CCN2CCCNC(=O)/C=C/c1cc(OC)c(OC)c(OC)c1	inactive	> 85%	Active	pIC50 (RAW264.7 [4]): 5.35
COc1ccc2c(c1)CCN2CCCNC(=O)/C=C/c1cc(OC)c(O)c(OC)c1	–	> 85%	–	–
COc1ccc2c(c1)CCN2CCCNC(=O)/C=C/c1ccc(O)c(Cl)c1	Active	> 85%	Active	–
O=C(/C=C/c1ccc(O)c(O)c1)OCCc1ccccc1 [CAFFEIC ACID PHENETHYL ESTER]	Active	–	–	pIC50 (RAW264.7 [4]): 6.41; Activity (Mus musculus [5]): 0.128 mL; Activity (Mus musculus [6]): 0.29 mL; Activity (Mus musculus [7]): 0.243 mL; Activity (Mus musculus [8]): 0.196 mL; inhibition in vivo at 30 mg/kg (Mus musculus [9]): 38.6%; inhibition in vivo at 30 mg/kg (Mus musculus [10]): 54.9%; inhibition in vivo at 30 mg/kg (Mus musculus [11]): 69.5%; Activity (Mus musculus [12]): 0.125 mL; Activity (Mus musculus [13]): 0.342 mL; Activity (Mus musculus [14]): 0.294 mL; Activity (Mus musculus [15]): 0.257 mL; inhibition in vivo at 30 mg/kg (Mus musculus [16]): 23.5%; inhibition in vivo at 30 mg/kg (Mus musculus [17]): 29.1%; inhibition in vivo at 30 mg/kg (Mus musculus [18]): 44.2%
O=C(/C=C/c1ccc(O)cc1)NCCCN1CCc2ccccc21	Active	> 85%	Active	–
COc1cc(/C=C/C(=O)NCCCN2CCc3ccccc32)ccc1O	–	> 85%	–	–
O=C(/C=C/c1ccc(O)c(O)c1)NCCCN1CCc2ccccc21	Active	> 85%	Active	pIC50 (RAW264.7 [4]): 5.72
CC(C)(C)c1cc(/C=C/C(=O)NCCCN2CCc3ccccc32)cc(C(C)(C)C)c1O	–	> 85%	–	–
O=C(/C=C/c1ccc(O)c(Cl)c1)NCCCN1CCc2ccccc21	Active	> 85%	Active	–
CC(C)(C)c1cc(/C=C/C(=O)NCCCN2CCc3cc(Cl)ccc32)cc(C(C)(C)C)c1O	–	> 85%	–	–
COc1cc(/C=C/C(=O)NCCCN2CCc3cc(Cl)ccc32)ccc1O	–	> 85%	–	pIC50 (RAW264.7 [4]): 5.30
O=C(/C=C/c1cccc(O)c1)NCCCN1CCc2ccccc21	–	> 85%	inactive	–
COc1ccc2c(c1)CCN2CCCNC(=O)/C=C/c1cccc(O)c1	–	> 85%	inactive	–

Structure (SMILES)	Activity (RAW264.7 [1])	viability at 24 h, 10 µM [2]	Activity (RAW264.7 [3])	further results
O=C(/C=C/c1ccc(O)cc1)NCCCN1CCc2cc(Cl)ccc21	Active	> 85%	Active	pIC50 (RAW264.7 [4]): 5.39
O=C(/C=C/c1ccc(O)c(Cl)c1)NCCCN1CCc2cc(Cl)ccc21	Active	> 85%	Active	pIC50 (RAW264.7 [4]): 5.44
O=C(/C=C/c1ccccc1)NCCCN1CCc2ccccc21	–	> 85%	–	–
COc1ccc2c(c1)CCN2CCCNC(=O)/C=C/c1ccccc1	–	> 85%	–	–
COc1cc(/C=C/C(=O)NCCCN2CCc3cc(Cl)ccc32)cc(OC)c1OC	inactive	> 85%	Active	pIC50 (RAW264.7 [4]): 5.45
O=C(/C=C/c1cccc(O)c1)NCCCN1CCc2cc(Cl)ccc21	–	> 85%	inactive	–
O=C(/C=C/c1ccccc1)NCCCN1CCc2cc(Cl)ccc21	–	> 85%	–	–
COc1ccc2c(c1)CCN2CCCNC(=O)/C=C/c1ccc(O)c([N+](=O)[O-])c1	–	> 85%	–	–
COc1ccc2c(c1)CCN2CCCNC(=O)/C=C/c1cc(C(C)(C)C)c(O)c(C(C)(C)C)c1	–	> 85%	–	–
O=C(/C=C/c1ccc(O)c([N+](=O)[O-])c1)NCCCN1CCc2cc(Cl)ccc21	–	> 85%	–	–
COc1cc(/C=C/C(=O)NCCCN2CCc3ccccc32)cc(OC)c1OC	inactive	> 85%	Active	pIC50 (RAW264.7 [4]): 5.41
O=C(/C=C/c1ccc(O)c([N+](=O)[O-])c1)NCCCN1CCc2ccccc21	–	> 85%	–	–
CC(=O)Oc1ccc(/C=C/C(=O)NCCCN2CCc3cc(Cl)ccc32)cc1OC(C)=O	–	–	–	Activity (Mus musculus [5]): 0.142 mL; Activity (Mus musculus [6]): 0.329 mL; Activity (Mus musculus [7]): 0.24 mL; Activity (Mus musculus [8]): 0.209 mL; inhibition in vivo at 30 mg/kg (Mus musculus [9]): 24.3%; inhibition in vivo at 30 mg/kg (Mus musculus [10]): 56.1%; inhibition in vivo at 30 mg/kg (Mus musculus [11]): 64%; Activity (Mus musculus [12]): 0.136 mL; Activity (Mus musculus [13]): 0.325 mL; Activity (Mus musculus [14]): 0.258 mL; Activity (Mus musculus [15]): 0.21 mL; inhibition in vivo at 30 mg/kg (Mus musculus [16]): 29.6%; inhibition in vivo at 30 mg/kg (Mus musculus [17]): 43.9%; inhibition in vivo at 30 mg/kg (Mus musculus [18]): 65.9%
COc1cc(/C=C/C(=O)NCCCN2CCc3ccccc32)cc(OC)c1O	–	> 85%	–	–
COc1ccc2c(c1)CCN2CCCNC(=O)/C=C/c1ccc(O)c(OC)c1	–	> 85%	–	–
